Reference: patent US20250091990A1, “DEUTERATED ORGANIC COMPOUNDS AND USES THEREOF” (ENGRAIL THERAPEUTICS, INC., priority 2022, published 2025)
Where “and” joins values, the source holds several entries; their conditions need not be identical. Equal entries are not always repeated. Where two headings read alike, the source gives them in different places. Marks after values point to notes of the source that are not given here.

Key:
[1] = target: T1, human Serotonin 5-HT1A receptor (Homo sapiens, UniProt P08908); assay: cAMP HTRF assay, agonist mode, 5-HT1A; assay type: cell-based; settings: % of reference agonist at EC100, average where marked d
T1 sequence (P08908 1-422): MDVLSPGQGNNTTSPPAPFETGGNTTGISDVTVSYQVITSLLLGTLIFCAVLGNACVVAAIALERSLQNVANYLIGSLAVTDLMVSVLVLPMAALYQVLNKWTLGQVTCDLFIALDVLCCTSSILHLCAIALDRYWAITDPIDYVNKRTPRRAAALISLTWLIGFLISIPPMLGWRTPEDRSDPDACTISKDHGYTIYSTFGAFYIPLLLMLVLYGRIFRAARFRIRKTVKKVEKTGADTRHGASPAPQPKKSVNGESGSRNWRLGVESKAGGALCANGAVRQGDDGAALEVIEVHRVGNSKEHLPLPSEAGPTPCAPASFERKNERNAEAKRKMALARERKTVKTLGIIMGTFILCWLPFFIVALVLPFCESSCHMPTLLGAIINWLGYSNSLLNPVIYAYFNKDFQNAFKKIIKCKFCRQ
Description: (§1) SPA ^35S-GTPgS experiments are conducted with membrane preparations. IP-One and cAMP HTRF assays are conducted with recombinant cell lines.
(§2) Agonist activity of test compounds is expressed as a percentage of the activity of the reference agonist at its EC100 concentration. Antagonist activity of the test compound is expressed as a percentage of the inhibition of reference agonist activity at its EC80 concentration.

[2] = target: T2, human Serotonin 5-HT2A receptor (Homo sapiens, UniProt P28223); assay: IPOne HTRF assay, antagonist mode, 5-HT2A; assay type: cell-based; settings: IP-one
T2 construct: expressed in transfected cells; host or cells: CHO-K1
Description: IP-One and cAMP HTRF assays are conducted with recombinant cell lines.
as §2

[3] = target: human Dopamine D3 receptor (Homo sapiens, UniProt P35462); settings: GTPγS; average where marked d
Description: as §1, §2

[4] = target: T2, human Serotonin 5-HT2A receptor; assay: IPOne HTRF assay, agonist mode, 5-HT2A; assay type: cell-based; settings: for Top % Activation at maximal concentration, 5-HT2A (agonist mode): % of reference agonist at EC100, average where marked d
Description: as §1, §2

[5] = target: T3, human Serotonin 5-HT7A receptor (Homo sapiens, UniProt P34969); assay: Radioligand binding competition, filtration binding assay, 5-HT7A; settings: for Ki: CHO-K1 membranes
T3 construct: expressed in transfected cells; host or cells: CHO-K1
Description: Radioligand binding experiments are conducted with membrane preparations.

[6] = tested on: Adult male Sprague Dawley rats; assay: Headshake response; assay type: in vivo, rat
Description: Example 9—Headshake Response
Adult male Sprague Dawley rats are used. […] DOI (3 mg/kg) is dissolved in saline and administered IP at a dose volume of 1 ml/kg (10 minutes prior to test).
The headshake response is a rapid, rhythmic shaking of the head in a radial motion. Data are analyzed by ANOVA followed by post hoc analysis where appropriate.

[7] = tested on: Adult male Sprague Dawley rats; assay: DOI-induced headshake response; assay type: in vivo, rat
Description: Example 10—DOI-Induced Headshake Response
Adult male Sprague Dawley rats are used. […] DOI (3 mg/kg) is dissolved in saline and administered IP at a dose volume of 1 ml/kg (10 minutes prior to test). Ketanserin (1 mg/kg) is dissolved in saline and injected IP 30 minutes prior to DOI at a dose volume of […].
Rats are then injected with DOI and headshakes are recorded 10 minutes after DOI injection for 10 minutes using video cameras. The headshake response is a rapid, rhythmic shaking of the head in a radial motion. Data is analyzed by ANOVA followed by post hoc analysis where appropriate.

Adult male Wistar rats = assay: Conditioned Avoidance Response test; assay type: in vivo, rat
Description: Adult male Wistar rats are used.
The Conditioned Avoidance Response (CAR) Test is an animal model screening for antipsychotic drugs.

[8] = target: T3, human Serotonin 5-HT7A receptor; assay: cAMP HTRF assay, antagonist mode, 5-HT7A; assay type: cell-based
[9] = In vitro metabolism, disappearance in pooled cryopreserved human hepatocytes; assay type: in vitro ADME; settings: 5 μM; for Disappearance without cells (buffer), 0 min, % / Disappearance without cells (buffer), 60 min, % / Disappearance without cells (buffer), 120 min, %: no cell control / buffer; for Disappearance in human hepatocytes, 0 min, % / Disappearance in human hepatocytes, 60 min, % / Disappearance in human hepatocytes, 120 min, %: with cells
Description: Study compounds are investigated in pooled cryopreserved human (mixed gender) hepatocytes. The incubations are performed using 5 μM initial concentration and sampling at 0, 60, and 120 minute time points. The samples are analyzed using UPLC-QE-orbitrap-MS. Incubation volume: 300 μl in 48-well plate. Number of cells: 1 million viable cells/ml. Test compound: 5 μM (stock solution in DMSO). Incubation medium: pH 7.4, Bioreclamation IVT in vitro KHB medium. Shaking: 600 rpm. Time points: 0, 60, and 120 minutes with and without cells. Temperature: 37° C. Sampling volume: 60 μl. DMSO content in incubation: 0.5%. […] Control: verapamil disappearance rate.
Sample preparation for hepatocyte samples: Samples are centrifuged for 20 min at 2272×g at room temperature and pipetted to a UPLC-plate for analysis.

[10] = target: human Dopamine D2S receptor (Homo sapiens, UniProt P14416)
Description: as §1, §2

Male Sprague Dawley rats = assay: Touchscreen-based rat Probabilistic Reward Task; assay type: in vivo; settings: 1 mg/kg orally, 4-5 hr prior to session
Description: Example 7—Touchscreen-Based Rat Probabilistic Reward Task
The Probabilistic Reward Task (PRT) uses visual discrimination methodology to quantify reward responsiveness to both identify deficits and characterize drug-induced improvements. Groups of rats are trained on the touchscreen-based PRT and exposed to asymmetrical probabilistic contingencies to generate response biases to the richly rewarded stimulus (Pizzagalli, D. et al., Biological Psychiatry, 2005, 57, 319-327; Kangas, B. et al., Translational Psychiatry, 2020, 10(1):285; Wooldridge, L. et al., International Journal of Neuropsychopharmacology, 2021, 24, 409-418).
Male Sprague Dawley rats are used in the present study.
Briefly, a custom-built Plexiglas chamber (25×30×35 cm) is situated in a sound- and light-attenuating enclosure (40×60×45 cm). A 17″ touch-sensitive screen (1739L, ELO TouchSystems, Menlo Park, CA) comprises the inside right-hand wall of the enclosure. An infusion pump (PHM-100-5, Med Associates, St. Albans, VT) outside the enclosure is used to deliver sweetened condensed milk solution into the shallow reservoir of a custom-designed aluminum receptacle. […]
Following line-length discrimination training, probabilistic reinforcement schedules are introduced. […] These probabilistic contingencies are assessed across 5 consecutive sessions prior to initiation of drug testing.

[11] = target: T4, human Dopamine D4.4 receptor (Homo sapiens, UniProt P21917); settings: cAMP; average where marked d
T4 sequence (P21917 1-419): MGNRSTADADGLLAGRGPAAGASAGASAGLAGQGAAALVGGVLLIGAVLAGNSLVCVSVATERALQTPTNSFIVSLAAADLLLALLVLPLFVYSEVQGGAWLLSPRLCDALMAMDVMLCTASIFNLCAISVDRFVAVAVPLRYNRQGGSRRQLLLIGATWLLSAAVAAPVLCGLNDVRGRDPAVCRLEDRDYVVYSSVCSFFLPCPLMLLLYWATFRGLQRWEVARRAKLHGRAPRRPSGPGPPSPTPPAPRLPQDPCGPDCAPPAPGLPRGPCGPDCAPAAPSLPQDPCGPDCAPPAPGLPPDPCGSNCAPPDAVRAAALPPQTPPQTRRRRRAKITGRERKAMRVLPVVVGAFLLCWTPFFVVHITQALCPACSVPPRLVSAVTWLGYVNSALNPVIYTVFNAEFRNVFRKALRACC
Description: as §1, §2

[12] = target: T2, human Serotonin 5-HT2A receptor; assay: Radioligand binding competition, filtration binding assay, 5-HT2A (labeled ketanserin)
[13] = [3H]-LSD, average where marked c, read-out: Binding 5-HT7A IC50
[14] = 2.5 and 5 mg/kg orally, 4 hours prior to test
[15] = numbers in parentheses that were averaged, read-out: Binding 5-HT7A IC50, single determinations
[16] = 0.5 mg/kg i.p., 30 minutes prior to test

T2 sequence (P28223 whole entry): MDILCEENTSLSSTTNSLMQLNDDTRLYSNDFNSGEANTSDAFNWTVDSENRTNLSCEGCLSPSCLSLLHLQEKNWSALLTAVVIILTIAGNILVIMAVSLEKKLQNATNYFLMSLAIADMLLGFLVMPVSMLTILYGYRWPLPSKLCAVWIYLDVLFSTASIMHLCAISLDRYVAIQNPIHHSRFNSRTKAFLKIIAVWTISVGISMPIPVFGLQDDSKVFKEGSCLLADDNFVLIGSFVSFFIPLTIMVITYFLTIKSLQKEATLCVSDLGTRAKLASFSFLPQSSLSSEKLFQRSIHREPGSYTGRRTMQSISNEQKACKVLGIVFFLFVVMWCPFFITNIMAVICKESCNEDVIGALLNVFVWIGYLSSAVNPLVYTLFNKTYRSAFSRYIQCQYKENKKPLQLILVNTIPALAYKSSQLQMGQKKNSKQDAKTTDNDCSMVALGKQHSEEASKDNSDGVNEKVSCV
Sequence of human Dopamine D3 receptor (P35462 whole entry): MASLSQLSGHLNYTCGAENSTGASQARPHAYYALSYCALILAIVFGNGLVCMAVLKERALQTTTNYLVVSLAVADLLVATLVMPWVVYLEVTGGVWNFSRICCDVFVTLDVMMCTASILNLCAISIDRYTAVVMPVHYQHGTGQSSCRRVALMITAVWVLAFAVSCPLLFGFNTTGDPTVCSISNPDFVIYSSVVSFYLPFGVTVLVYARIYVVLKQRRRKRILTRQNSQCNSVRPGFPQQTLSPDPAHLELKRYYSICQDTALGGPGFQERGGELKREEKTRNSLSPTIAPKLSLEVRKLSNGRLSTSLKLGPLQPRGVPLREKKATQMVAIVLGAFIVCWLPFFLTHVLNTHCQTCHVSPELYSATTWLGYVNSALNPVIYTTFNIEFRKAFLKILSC
T3 sequence (P34969 1-445 isoform P34969-2): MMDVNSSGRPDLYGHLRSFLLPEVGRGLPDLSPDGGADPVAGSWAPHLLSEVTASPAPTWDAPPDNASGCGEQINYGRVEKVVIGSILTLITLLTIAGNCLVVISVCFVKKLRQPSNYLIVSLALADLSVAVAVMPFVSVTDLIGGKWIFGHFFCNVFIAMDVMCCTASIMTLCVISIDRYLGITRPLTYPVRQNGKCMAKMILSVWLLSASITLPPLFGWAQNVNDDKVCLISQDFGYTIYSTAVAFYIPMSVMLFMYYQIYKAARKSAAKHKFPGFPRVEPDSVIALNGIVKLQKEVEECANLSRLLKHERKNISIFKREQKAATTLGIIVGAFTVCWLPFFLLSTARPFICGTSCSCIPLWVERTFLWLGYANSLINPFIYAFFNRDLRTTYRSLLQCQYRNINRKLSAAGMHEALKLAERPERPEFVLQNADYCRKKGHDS
Sequence of human Dopamine D2S receptor (P14416 1-414 isoform P14416-2): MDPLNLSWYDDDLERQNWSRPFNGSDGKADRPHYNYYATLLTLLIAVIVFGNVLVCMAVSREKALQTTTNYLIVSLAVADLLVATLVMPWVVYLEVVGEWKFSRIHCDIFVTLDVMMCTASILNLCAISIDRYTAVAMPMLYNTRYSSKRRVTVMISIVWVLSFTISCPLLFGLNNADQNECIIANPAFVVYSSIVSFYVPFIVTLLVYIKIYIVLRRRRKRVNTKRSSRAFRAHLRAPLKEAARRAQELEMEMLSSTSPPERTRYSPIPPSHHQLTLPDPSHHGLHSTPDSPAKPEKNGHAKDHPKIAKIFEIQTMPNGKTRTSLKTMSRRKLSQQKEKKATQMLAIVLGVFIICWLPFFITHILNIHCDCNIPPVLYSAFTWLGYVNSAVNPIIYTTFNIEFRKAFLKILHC

SMILES: CNc1cc(OC)c(C(=O)N[C@H]2CCN(Cc3ccccc3)[C@H]2C)cc1Cl (racemic) [Nemonapride, (±)-cis-N-(1-Benzyl-2-methylpyrrolidin-3-yl)-5-chloro-2-methoxy-4-methylaminobenzamide]
- Top % Activation at maximal concentration, 5-HT1A (agonist mode) [1]: 52%
- Top % Inhibition at maximal concentration, 5-HT2A (antagonist mode) [2]: 33%
- Top % Inhibition at maximal concentration, D3 (antagonist mode) [3]: 126%
- Top % Activation at maximal concentration, 5-HT2A (agonist mode) ([4]; IP-one): 48%
- Ki ([5]; [3H]-LSD): 53.2 nM
- IC50 [5, 13]: 75.7 nM

SMILES: COc1cc(CC(C)N)c(OC)cc1I (stereo not drawn) [DOI, reference compound]
- Number of headshakes compared to vehicle ([6]; 3 mg/kg i.p., 10 minutes prior to test): significantly increases headshake responses
- Number of headshakes compared to vehicle ([7]; DOI 3 mg/kg IP, 10 minutes prior to test): significantly increases the number of headshakes

SMILES: [2H]C([2H])([2H])Nc1cc(OC)c(C(=O)N[C@@H]2CCN(C([2H])([2H])c3ccccc3)[C@@H]2C)cc1Cl [Example 1, 5-Chloro-N-((2R,3R)-1-(dideutero(phenyl)methyl)-2-methylpyrrolidin-3-yl)-2-methoxy-4-(trideuteromethylamino)benzamide]
- Escape failures compared to vehicle (Adult male Wistar rats; 0.5, 2.5 and 5 mg/kg orally, 4 hours prior to test): None of the doses of the deuterated compound of Example 1 (A2) have a significant treatment effect
- Number of avoidance responses compared to vehicle (Adult male Wistar rats; [14]): significantly decrease
- Percent avoidance compared to vehicle (Adult male Wistar rats; [14]): significantly decrease
- IC50 [8]: > 3000 nM
- Top % Activation at maximal concentration, 5-HT1A (agonist mode) [1]: 64^d %
- Number of headshakes compared to vehicle ([6]; 1, 5 and 10 mg/kg PO, 4 hours prior to test): no significant increase
- Top % Inhibition at maximal concentration, D3 (antagonist mode) [3]: 122^d %
- Top % Activation at maximal concentration, 5-HT2A (agonist mode) ([4]; IP-one): 69^d %
- Top % Activation, 5-HT2A (agonist mode), single determinations ([4]; IP-one, numbers in parentheses that were averaged, listed as Ex. 1 (A2)): 53% and 82% and 68% and 72%
- 5-HT2A agonism (in words) ([4]; compared with non-deuterated analog / summary of Tables 4 and 5): 5-HT2A partial agonist and higher 5-HT2A agonism
- Disappearance without cells (buffer), 0 min, % [9]: 100%
- Disappearance without cells (buffer), 60 min, % [9]: 91%
- Disappearance without cells (buffer), 120 min, % [9]: 92%
- Disappearance in human hepatocytes, 0 min, % [9]: 100%
- Disappearance in human hepatocytes, 60 min, % [9]: 8%
- Disappearance in human hepatocytes, 120 min, % [9]: 1%
- Top % Inhibition, D2S (antagonist mode), single determinations [10]: 93) %
- Top % Inhibition, D2S (antagonist mode), single determinations ([10]; cAMP, numbers in parentheses that were averaged): (104, %
- Reward response bias (log b) (Male Sprague Dawley rats): enhances reward response bias (log b) significantly
- Top % Inhibition at maximal concentration, D4 (antagonist mode) [11]: 100^d %
- DOI-induced headshake responses ([7]; 1, 5 and 10 mg/kg PO, 4 hours prior, DOI 3 mg/kg IP): significantly attenuate DOI-induced headshake responses
- Ki ([5]; [3H]-LSD): 82.6 nM
- IC50 [5, 13]: 131 nM
- IC50 [5, 15]: 143 nM and 118 nM

SMILES: O=C(c1ccc(F)cc1)C1CCN(CCn2c(=O)[nH]c3ccccc3c2=O)CC1 [Ketanserin]
- DOI-induced headshake responses ([7]; 1 mg/kg IP, 30 minutes prior to DOI 3 mg/kg IP): significantly attenuate DOI-induced headshake responses

SMILES: CCN1CCC[C@@H]1CNC(=O)c1c(OC)ccc(Br)c1OC [R-remoxipride]
- Binding to the 5-HT2A receptor in vitro (in words) [12]: do not even bind

SMILES: CCN1CCC[C@H]1CNC(=O)c1c(OC)ccc(Br)c1OC [S-remoxipride]
- Binding to the 5-HT2A receptor in vitro (in words) [12]: do not even bind

SMILES: CNc1cc(OC)c(C(=O)N[C@@H]2CCN(Cc3ccccc3)[C@@H]2C)cc1Cl [cis (R,R) nemonapride, N-[(2R,3R)-1-benzyl-2-methylpyrrolidin-3-yl]-5-chloro-2-methoxy-4-(methylamino)benzamide, reference compound]
- IC50 [8]: 2470 nM
- Top % Activation at maximal concentration, 5-HT1A (agonist mode) [1]: 78^d %
- Top % Inhibition at maximal concentration, D3 (antagonist mode) [3]: 99^d %
- Top % Activation at maximal concentration, 5-HT2A (agonist mode) ([4]; IP-one): 44^d %
- Disappearance without cells (buffer), 0 min, % [9]: 100%
- Disappearance without cells (buffer), 60 min, % [9]: 96%
- Disappearance without cells (buffer), 120 min, % [9]: 99%
- Disappearance in human hepatocytes, 0 min, % [9]: 100%
- Disappearance in human hepatocytes, 60 min, % [9]: 10%
- Disappearance in human hepatocytes, 120 min, % [9]: 2%
- Top % Inhibition at maximal concentration, D4 (antagonist mode) [11]: 111^d %
- Ki ([5]; [3H]-LSD): 102 nM
- IC50 [5, 13]: 129 nM
- IC50 [5, 15]: 112 nM and 145 nM

SMILES: Cc1nc2n(c(=O)c1CCN1CCC(c3noc4cc(F)ccc34)CC1)CCCC2 [risperidone, reference compound]
- Number of avoidance responses compared to vehicle (Adult male Wistar rats; [16]): significantly decrease
- Percent avoidance compared to vehicle (Adult male Wistar rats; [16]): significantly decrease
